PubChem BioAssay (NCI)
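Compound exposure: 48 hours, 5 concentrations, 96-well plates. At the GI50, growth is halved. TGI marks complete inhibition of growth.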

Columns and labels:
Experiment in all cases: DTP human tumour cell line panel, 48 h
[1] = test system: A498 renal
[2] = test system: ACHN renal
[3] = test system: HL-60(TB) leukemia
[4] = test system: K-562 leukemia
[5] = test system: NCI/ADR-RES ovarian
[6] = test system: RXF 393 renal
[7] = test system: SK-OV-3 ovarian
[8] = test system: SNB-75 CNS
[9] = test system: 786-0 renal
[10] = test system: A549 NSCLC
[11] = test system: BT-549 breast
[12] = test system: CAKI-1 renal
[13] = test system: COLO 205 colon
[14] = test system: DU-145 prostate
[15] = test system: EKVX NSCLC
[16] = test system: HCC-2998 colon
[17] = test system: HCT-116 colon
[18] = test system: HCT-15 colon
[19] = test system: HOP-62 NSCLC
[20] = test system: HOP-92 NSCLC
[21] = test system: HS 578T breast
[22] = test system: HT29 colon
[23] = test system: IGROV1 ovarian
[24] = test system: KM12 colon
[25] = test system: LOX IMVI melanoma
[26] = test system: M14 melanoma
[27] = test system: MALME-3M melanoma
[28] = test system: MCF7 breast
[29] = test system: MDA-MB-231 breast
[30] = test system: MDA-MB-435
[31] = test system: NCI-H226 lung
[32] = test system: NCI-H23 lung
[33] = test system: NCI-H460 lung
[34] = test system: NCI-H522 lung
[35] = test system: OVCAR-4 ovarian
[36] = test system: OVCAR-5 ovarian
[37] = test system: OVCAR-8 ovarian
[38] = test system: PC-3 prostate
[39] = test system: SF-268 CNS
[40] = test system: SF-295 CNS
[41] = test system: SF-539 CNS
[42] = test system: SK-MEL-2 melanoma
[43] = test system: SK-MEL-28 melanoma
[44] = test system: SK-MEL-5 melanoma
[45] = test system: SN12C renal
[46] = test system: SNB-19 CNS
[47] = test system: SR leukemia
[48] = test system: SW-620 colon
[49] = test system: T-47D breast
[50] = test system: TK-10 renal
[51] = test system: U251 CNS
[52] = test system: UACC-257 melanoma
[53] = test system: UACC-62 melanoma
[54] = test system: UO-31 renal

## NC(N)=Nc1ccc(Oc2cccc(Nc3ccc(Cl)c(C(F)(F)F)c3)c2)cn1
[1]
  GI50: 1230 nM
  TGI: 2670 nM
[2]
  GI50: 1740 nM
  TGI: 3210 nM
[3]
  GI50: 1890 nM
  TGI: 4520 nM
[4]
  GI50: 1910 nM
  TGI: > 100000 nM
[5]
  GI50: 3740 nM
  TGI: 30500 nM
[6]
  GI50: 1780 nM
  TGI: 3580 nM
[7]
  GI50: 1890 nM
  TGI: 3430 nM
[8]
  GI50: 1420 nM
  TGI: 2770 nM

## COc1cc2c(cc1OC)C(Sc1ccc(C)cc1)c1c(nc(N)c(C#N)c1N)O2 (centres undefined)
[9]
  GI50: 1420 nM
  TGI: 2790 nM
[1]
  GI50: 1380 nM
  TGI: 2670 nM
[10]
  GI50: 1730 nM
  TGI: 3270 nM
[2]
  GI50: 1510 nM
  TGI: 2860 nM
[11]
  GI50: 1220 nM
  TGI: 2490 nM
[12]
  GI50: 1050 nM
  TGI: 2250 nM
[13]
  GI50: 1490 nM
  TGI: 2870 nM
[14]
  GI50: 1680 nM
  TGI: 3050 nM
[15]
  GI50: 1690 nM
  TGI: 3130 nM
[16]
  GI50: 1580 nM
  TGI: 3120 nM
[17]
  GI50: 1510 nM
  TGI: 3030 nM
[18]
  GI50: 1000 nM
  TGI: 2430 nM
[3]
  GI50: 431 nM
  TGI: 4050 nM
[19]
  GI50: 1800 nM
  TGI: 3240 nM
[20]
  GI50: 1510 nM
  TGI: 2930 nM
[21]
  GI50: 1970 nM
  TGI: 4870 nM
[22]
  GI50: 1770 nM
  TGI: 3430 nM
[23]
  GI50: 715 nM
  TGI: 2040 nM
[4]
  GI50: 558 nM
  TGI: > 100000 nM
[24]
  GI50: 1630 nM
  TGI: 3010 nM
[25]
  GI50: 1050 nM
  TGI: 2420 nM
[26]
  GI50: 1770 nM
  TGI: 3290 nM
[27]
  GI50: 1740 nM
  TGI: 3240 nM
[28]
  GI50: 742 nM
  TGI: 2270 nM
[29]
  GI50: 1650 nM
  TGI: 3130 nM
[30]
  GI50: 1580 nM
  TGI: 3010 nM
[31]
  GI50: 1900 nM
  TGI: 3990 nM
[32]
  GI50: 1590 nM
  TGI: 3100 nM
[33]
  GI50: 1760 nM
  TGI: 3360 nM
[34]
  GI50: 1620 nM
  TGI: 3070 nM
[5]
  GI50: 1670 nM
  TGI: 3370 nM
[35]
  GI50: 1660 nM
  TGI: 3070 nM
[36]
  GI50: 1810 nM
  TGI: 3310 nM
[37]
  GI50: 1550 nM
  TGI: 2910 nM
[38]
  GI50: 1510 nM
  TGI: 2930 nM
[6]
  GI50: 1150 nM
  TGI: 2420 nM
[39]
  GI50: 1560 nM
  TGI: 3080 nM
[40]
  GI50: 1600 nM
  TGI: 3050 nM
[41]
  GI50: 1570 nM
  TGI: 2930 nM
[42]
  GI50: 1590 nM
  TGI: 2990 nM
[43]
  GI50: 1670 nM
  TGI: 3060 nM
[44]
  GI50: 1780 nM
  TGI: 3220 nM
[7]
  GI50: 1910 nM
  TGI: 3350 nM
[45]
  GI50: 1490 nM
  TGI: 2860 nM
[46]
  GI50: 1460 nM
  TGI: 2840 nM
[8]
  GI50: 1220 nM
  TGI: 2470 nM
[47]
  GI50: 291 nM
  TGI: > 100000 nM
[48]
  GI50: 1240 nM
  TGI: 2740 nM
[49]
  GI50: 1220 nM
  TGI: 3560 nM
[50]
  GI50: 1200 nM
  TGI: 2470 nM
[51]
  GI50: 1360 nM
  TGI: 2750 nM
[52]
  GI50: 1630 nM
  TGI: 3070 nM
[53]
  GI50: 1740 nM
  TGI: 3220 nM
[54]
  GI50: 1070 nM
  TGI: 2250 nM
